Columns and labels:
[1] = in vivo; cited from earlier work
[2] = Additional benefits observed in people taking betaine; assay type: in vivo, human
Source text: Betaine is known to improve cardiovascular health, and can benefit people with fatty deposits in the liver. […] After only a few weeks of taking the betaine, cholesterol levels are reduced and the ability to lose weight is improved.

[3] = after only a few weeks of taking the betaine

C[N+](C)(C)CC(=O)[O-] [betaine, trimethylglycine]
serious side effects [1]: no known serious side effects | tendency to be light headed on getting up after prolonged squatting or kneeling ([2]; a few doses of betaine at about one and a half to about three grams per day, especially older people): considerably lessened | ability to lose weight [2, 3]: improved | cholesterol levels [2, 3]: reduced
